Experimental data as given in patent US20220242846A1, “ISOINDOLINONE COMPOUNDS” (Monte Rosa Therapeutics AG, priority 2019, published 2022).
Like-named read-outs stand apart in the source and are kept apart here.

What was measured:
[1] = test system: Human mammary epithelial cells (HMEC) engineered to express c-myc tagged with EGFP; test: 3D spheroid assay, myc-HMEC (CellTiterGlo3D viability); format: cell-based
Procedure: (§1) 3D Spheroid Experiments—HMEC
(§2) Human mammary epithelial cells (HMEC) were engineered to express either c-myc tagged with EGFP or EGFP alone (non myc) (analogous but distinct from Kessler J D et al, Science. 2012 Jan. 20; 335(6066):348-53. doi: 10.1126/science.1212728; Hsu T Y et al, Nature. 2015 Sep. 17; 525(7569):384-8. doi: 10.1038/nature14985). The engineered cells were seeded at 1000 (myc) or 4000 (non myc) cells/well in a 384 ultra-low attachment plate in a total volume of 40 µL, HMEC cell culture media (DMEM/F12+10% HI-FBS+15 mM HEPES+0.5 ug/ml Hydrocortisone+10 ug/ml Insulin+20 ng/ml EGF). Plates were spun at 1200 rpm for 5 minutes at room temperature to ensure that cells have gathered in the middle of the well and incubated at 37° C. for 48 hrs before firing with compounds. On Day 2 (48 h post seeding) cells were imaged (brightfield and EGFP fluorescence) using the Celigo imaging cytometer prior to firing compounds. For primary screens, compounds were added at three concentrations (1.25, 10 and 30 uM) in a volume of 120 nL using the ECHO acoustic dispenser and spun at 2000 rpm for 2 minutes at room temperature before incubating at 37° C. for 5 days. […] On Day 7, prior to measuring cell viability using CellTiterGlo3D, cells were imaged (brightfield and EGFP fluorescence) on the Celigo imaging cytometer. The CellTiterGlo3D reagent is added at 30uL/well and incubated at room temperature for 30mins After 30mins of incubation, luminescence readings were recorded using the Perkin Elmer EnVision reader.

[2] = molecular target: T1, Full length wild-type cereblon CRBN (Homo sapiens, UniProt Q96SW2); test: Fluorescence polarization (FP) assay indicating cereblon binding; details: CRBN 80.0 nM, fluorescent probe 5 nM, FP measured after 12 hours; read-out: rFP IC50
T1 construct: Full length wild-type cereblon CRBN (80.0 nM, 10 μL) was incubated in assay buffer
T1 sequence (Q96SW2 whole entry): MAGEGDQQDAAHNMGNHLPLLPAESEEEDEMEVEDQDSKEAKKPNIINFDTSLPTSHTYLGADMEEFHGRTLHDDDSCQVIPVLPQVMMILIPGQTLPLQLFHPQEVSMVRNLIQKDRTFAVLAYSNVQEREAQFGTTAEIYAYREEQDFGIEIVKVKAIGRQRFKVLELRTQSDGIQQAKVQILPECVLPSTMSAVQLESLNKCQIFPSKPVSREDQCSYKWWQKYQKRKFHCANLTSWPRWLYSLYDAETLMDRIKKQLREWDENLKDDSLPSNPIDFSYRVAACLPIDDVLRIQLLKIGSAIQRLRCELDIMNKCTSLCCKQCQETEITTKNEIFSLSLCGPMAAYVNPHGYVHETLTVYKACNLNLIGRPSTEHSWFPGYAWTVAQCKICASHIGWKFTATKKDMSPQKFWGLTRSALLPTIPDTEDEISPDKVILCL
Outline: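 Full-length wild-type human CRBN (80.0 nM) preincubated 30 min at room temperature with compound (12-point curve, 300-0.937 or 3000-9.3 nM) in HEPES pH 8.0, NaCl, TCEP, Tween 20. Thalidomide-based Cy5-type probe then added at 5 nM final; FP read after 12 h (ex 590, em 675 nm), normalized to DMSO, IC50 derived.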

GSPT1 = GSPT1 (Homo sapiens, UniProt P15170+Q96SW2); test: Immunofluorescence assay for GSPT1 degradation in CAL-51 cells; format: cell-based; set-up: CAL-51 cells were purchased from DSMZ (cat. Number ACC302); endogenous in cells; host or cells: CAL-51 (DSMZ ACC302); details: compound treatment 6 hours
GSPT1, sequence (P15170 whole entry): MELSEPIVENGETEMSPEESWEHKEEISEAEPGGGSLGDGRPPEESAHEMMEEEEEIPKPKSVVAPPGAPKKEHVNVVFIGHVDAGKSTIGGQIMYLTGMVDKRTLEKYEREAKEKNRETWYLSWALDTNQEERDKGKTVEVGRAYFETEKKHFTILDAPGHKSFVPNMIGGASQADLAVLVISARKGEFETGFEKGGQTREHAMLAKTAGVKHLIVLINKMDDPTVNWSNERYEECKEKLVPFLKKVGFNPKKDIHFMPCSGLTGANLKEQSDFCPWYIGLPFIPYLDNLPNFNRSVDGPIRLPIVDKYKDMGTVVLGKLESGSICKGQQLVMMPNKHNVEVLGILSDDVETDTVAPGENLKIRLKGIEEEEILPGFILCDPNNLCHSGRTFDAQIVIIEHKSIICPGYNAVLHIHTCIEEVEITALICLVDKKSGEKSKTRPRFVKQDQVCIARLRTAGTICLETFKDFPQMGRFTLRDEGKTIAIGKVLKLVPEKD
GSPT1, sequence (Q96SW2 whole entry): as the sequence (Q96SW2 whole entry) above
GSPT1, sequence (Q16531 2-1140 partner limits assumed): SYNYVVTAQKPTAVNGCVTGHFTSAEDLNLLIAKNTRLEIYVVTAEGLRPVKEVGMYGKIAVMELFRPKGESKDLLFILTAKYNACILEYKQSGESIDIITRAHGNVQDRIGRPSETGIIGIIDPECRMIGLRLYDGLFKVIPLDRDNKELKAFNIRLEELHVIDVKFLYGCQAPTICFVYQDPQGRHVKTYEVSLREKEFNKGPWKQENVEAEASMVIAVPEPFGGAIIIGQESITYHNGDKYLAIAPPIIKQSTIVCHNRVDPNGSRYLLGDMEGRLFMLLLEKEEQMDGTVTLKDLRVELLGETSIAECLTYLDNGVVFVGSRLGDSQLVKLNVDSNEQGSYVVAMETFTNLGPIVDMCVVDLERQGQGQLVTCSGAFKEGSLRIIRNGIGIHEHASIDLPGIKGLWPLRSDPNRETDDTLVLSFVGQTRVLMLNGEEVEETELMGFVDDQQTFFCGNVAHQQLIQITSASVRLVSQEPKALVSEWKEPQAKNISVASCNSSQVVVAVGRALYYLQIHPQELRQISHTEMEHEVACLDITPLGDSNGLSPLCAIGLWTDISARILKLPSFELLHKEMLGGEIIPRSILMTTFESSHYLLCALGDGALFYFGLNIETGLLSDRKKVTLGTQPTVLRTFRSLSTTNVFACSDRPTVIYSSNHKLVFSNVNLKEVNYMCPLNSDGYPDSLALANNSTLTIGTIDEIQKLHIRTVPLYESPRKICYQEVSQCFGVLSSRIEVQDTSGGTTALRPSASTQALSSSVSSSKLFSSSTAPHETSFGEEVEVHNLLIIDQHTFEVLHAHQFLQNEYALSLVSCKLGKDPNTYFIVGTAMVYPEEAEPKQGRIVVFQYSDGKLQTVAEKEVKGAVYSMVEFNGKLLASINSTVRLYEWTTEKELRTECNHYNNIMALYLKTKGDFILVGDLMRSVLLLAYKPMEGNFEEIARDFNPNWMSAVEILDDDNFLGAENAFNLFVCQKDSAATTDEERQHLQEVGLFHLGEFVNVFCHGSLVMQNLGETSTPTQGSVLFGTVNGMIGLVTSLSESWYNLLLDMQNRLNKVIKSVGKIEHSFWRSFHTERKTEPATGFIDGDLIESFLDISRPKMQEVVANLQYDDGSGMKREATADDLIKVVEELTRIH
Outline: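 CAL-51 cells on fibronectin-coated plates treated 6 h with compound (30 μM to 0.1 nM); fixed, stained with anti-GSPT1/Alexa-488, phalloidin and DAPI, imaged by high-content microscopy. Mean GSPT1 intensity per cell normalized to controls; DC50 by non-linear regression.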

[3] = test system: Human mammary epithelial cells (HMEC) engineered to express EGFP alone (non myc); test: 3D spheroid assay, non myc-HMEC (CellTiterGlo3D viability); format: cell-based; details: 120 h, 3D spheroids, 5 days with compound, read-out: Code: EC50 value in the non myc-HMEC assay
Procedure: as §1, §2

[4] = Homo sapiens, HMEC, 120 h, 3D spheroids, 5 days with compound, read-out: Code: EC50 value in the myc-HMEC assay
[5] = myc-HMEC 3D spheroids (compounds with code D and E), 5 days, read-out: EC50
[6] = read-out: Code: activity for GSPT1 degradation (DC50)
[7] = GSPT1 degradation, read-out: DC50

Row | SMILES | EC50 [1, 4] [nM] | EC50 [1, 5] [nM] | IC50 [2] [nM] | DC50 (GSPT1; [6]) [nM] | EC50 [3] [nM] | DC50 (GSPT1; [7]) [nM] | EC50 ([1]; Homo sapiens, HMEC, 120 h, myc-HMEC 3D spheroids (compounds with code D and E), 5 days, read-out: EC50) [nM]
1 | O=C1CCC(N2Cc3ccc(CNC(=O)Nc4cccc(C(F)(F)F)c4)cc3C2=O)C(=O)N1 (stereo not drawn) [Compound 47] | 400 to 2000 | 544 | 1080 | ≤ 100 | > 10000 |  | 
2 | Cc1cccc(NC(=O)NCc2ccc3c(c2)C(=O)N(C2CCC(=O)NC2=O)C3)c1C (stereo not drawn) [Compound 44] | > 2000 |  | 747 | > 300 | > 10000 |  | 
3 | Cc1cccc(C)c1NC(=O)NCc1ccc2c(c1)C(=O)N(C1CCC(=O)NC1=O)C2 (stereo not drawn) [Compound 25] | > 2000 |  | 612 | > 300 | > 10000 |  | 
4 | C[C@H](NC(=O)NCc1ccc2c(c1)C(=O)N(C1CCC(=O)NC1=O)C2)c1ccccc1 (stereo partly drawn) [Compound 55] | > 2000 |  | 497 | > 300 | > 10000 |  | 
5 | CCOc1ccccc1NC(=O)NCc1ccc2c(c1)C(=O)N(C1CCC(=O)NC1=O)C2 (stereo not drawn) [Compound 22] | > 2000 |  | 393 | > 300 | > 10000 |  | 
6 | CC(C)(C)c1ccc(NC(=O)NCc2ccc3c(c2)C(=O)N(C2CCC(=O)NC2=O)C3)cc1 (stereo not drawn) [Compound 56] | ≤ 400 | 228 | 434 | ≤ 100 | > 10000 |  | 
7 | COc1ccc(NC(=O)NCc2ccc3c(c2)C(=O)N(C2CCC(=O)NC2=O)C3)cc1Cl (stereo not drawn) [Compound 59] | 400 to 2000 | 589 | 373 | 100 to 300 | > 10000 |  | 
8 | O=C1CCC(N2Cc3ccc(CNC(=O)Nc4cccc(F)c4)cc3C2=O)C(=O)N1 (stereo not drawn) [Compound 34] | > 2000 |  | 481 | > 300 | > 10000 |  | 
9 | N#Cc1ccc(NC(=O)NCc2ccc3c(c2)C(=O)N(C2CCC(=O)NC2=O)C3)cc1 (stereo not drawn) [Compound 74] | > 2000 |  | 196 | > 300 | > 10000 |  | 
10 | COc1ccc(C)cc1NC(=O)NCc1ccc2c(c1)C(=O)N(C1CCC(=O)NC1=O)C2 (stereo not drawn) [Compound 17] | > 2000 |  | 514 | > 300 | > 10000 |  | 
11 | CCc1cccc(NC(=O)NCc2ccc3c(c2)C(=O)N(C2CCC(=O)NC2=O)C3)c1 (stereo not drawn) [Compound 31] | 400 to 2000 | 457 | 595 | 100 to 300 | > 10000 |  | 
12 | COc1ccc(NC(=O)NCc2ccc3c(c2)C(=O)N(C2CCC(=O)NC2=O)C3)cc1 (stereo not drawn) [Compound 5] | > 2000 |  | 339 | > 300 | > 10000 |  | 
13 | Cc1cc(Cl)ccc1NC(=O)NCc1ccc2c(c1)C(=O)N(C1CCC(=O)NC1=O)C2 (stereo not drawn) [Compound 32] | > 2000 |  | 508 | > 300 | > 10000 |  | 
14 | O=C1CCC(N2Cc3ccc(CNC(=O)Nc4ccc(-c5ccccc5)cc4)cc3C2=O)C(=O)N1 (stereo not drawn) [Compound 71] | ≤ 400 | 39 | 333 | ≤ 100 | > 10000 |  | 
15 | Cc1cc(C)cc(NC(=O)NCc2ccc3c(c2)C(=O)N(C2CCC(=O)NC2=O)C3)c1 (stereo not drawn) [Compound 20] | 400 to 2000 | 555 | 550 | ≤ 100 | > 10000 |  | 
16 | COc1ccc(Cl)cc1NC(=O)NCc1ccc2c(c1)C(=O)N(C1CCC(=O)NC1=O)C2 (stereo not drawn) [Compound 30] | ≤ 400 | 359 | 580 | ≤ 100 | > 10000 |  | 
17 | O=C1CCC(N2Cc3ccc(CNC(=O)Nc4ccccc4Cl)cc3C2=O)C(=O)N1 (stereo not drawn) [Compound 4] | > 2000 |  | 483 | > 300 | > 10000 |  | 
18 | O=C1CCC(N2Cc3ccc(CNC(=O)Nc4cc(Cl)cc(Cl)c4)cc3C2=O)C(=O)N1 (stereo not drawn) [Compound 38] | ≤ 400 | 161 | 589 | 100 to 300 | > 10000 |  | 
19 | O=C1CCC(N2Cc3ccc(CNC(=O)Nc4ccc(F)c(F)c4)cc3C2=O)C(=O)N1 (stereo not drawn) [Compound 39] | > 2000 |  | 587 | > 300 | > 10000 |  | 
20 | Cc1ccc(NC(=O)NCc2ccc3c(c2)C(=O)N(C2CCC(=O)NC2=O)C3)cc1C (stereo not drawn) [Compound 68] | 400 to 2000 | 458 | 290 | 100 to 300 | > 10000 | 200 | 
21 | CC(C)(C)NC(=O)NCc1ccc2c(c1)C(=O)N(C1CCC(=O)NC1=O)C2 (stereo not drawn) [Compound 10] | > 2000 |  | 763 | > 300 | > 10000 |  | 
22 | O=C1CCC(N2Cc3ccc(CNC(=O)Nc4ccc(Cl)cc4)cc3C2=O)C(=O)N1 (stereo not drawn) [Compound 2] | > 2000 |  | 254 | > 300 | > 10000 |  | 
23 | N#Cc1cccc(NC(=O)NCc2ccc3c(c2)C(=O)N(C2CCC(=O)NC2=O)C3)c1 (stereo not drawn) [Compound 73] | > 2000 |  | 211 | > 300 | > 10000 |  | 
24 | O=C1CCC(N2Cc3ccc(CNC(=O)NCc4ccc(C(F)(F)F)cc4)cc3C2=O)C(=O)N1 (stereo not drawn) [Compound 65] | > 2000 |  | 637 | > 300 | > 10000 |  | 
25 | O=C1CCC(N2Cc3ccc(CNC(=O)Nc4ccc(C(F)(F)F)cc4)cc3C2=O)C(=O)N1 (stereo not drawn) [Compound 41] | 400 to 2000 | 1100 | 590 | 100 to 300 | > 10000 | 172 | ≤ 2000
26 | Cc1ccc(NC(=O)NCc2ccc3c(c2)C(=O)N(C2CCC(=O)NC2=O)C3)cc1 (stereo not drawn) [Compound 21] | > 2000 |  | 622 | > 300 | > 10000 |  | 
